From US5658890A, “C-nucleoside isostere of nicotinamide adenine dinucleotide, analogs thereof and use as anti-cancer agent” (Sloan-Kettering Institute for Cancer Research, priority 1995, dated 1997)
Read-outs that look alike come from different tables or passages of the source.

Columns and labels:
[1] = target: T1, horse liver alcohol dehydrogenase (ADH) (Equus caballus, UniProt P00327); assay: Inhibition of horse liver alcohol dehydrogenase (ADH), NADH absorbance at 340 nm; type: biochemical; settings: for Ki: pH 8.0
T1 construct: horse liver alcohol dehydrogenase (ADH); from tissue; host or cells: horse liver
T1 sequence (P00327 whole entry): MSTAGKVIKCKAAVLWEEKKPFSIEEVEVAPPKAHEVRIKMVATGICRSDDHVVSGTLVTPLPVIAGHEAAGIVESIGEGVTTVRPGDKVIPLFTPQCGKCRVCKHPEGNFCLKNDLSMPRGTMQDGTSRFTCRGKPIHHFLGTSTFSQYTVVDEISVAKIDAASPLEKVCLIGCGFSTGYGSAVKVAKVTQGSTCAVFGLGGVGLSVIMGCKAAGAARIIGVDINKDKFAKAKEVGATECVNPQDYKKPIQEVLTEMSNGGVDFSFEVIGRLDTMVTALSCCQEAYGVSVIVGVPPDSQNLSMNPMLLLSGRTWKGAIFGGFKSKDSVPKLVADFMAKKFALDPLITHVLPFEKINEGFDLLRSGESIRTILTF
Description: 2. Inhibition of horse liver alcohol dehydrogenase (ADH) and bovine glutamate dehydrogenase (GDH) Rate measurements for each of the dehydrogenases used in this study are based on the spectral properties of NADH. […] Rates, using absorbance measurements, were calculated using a millimolar extinction coefficient of 6.22/cm for NADH. Alcohol dehydrogenase assays were run at pH 8.0, using 0.1M sodium phosphate buffer. […] All kinetic assays were run at least in duplicate. Initial values of inhibition constants were estimated from Lineweaver-Burk plots, using linear regression to obtain values for the slope and intercept of each line. Inhibition was judged to be competitive if the values obtained for the intercepts of the appropriate polots differed by less than three standard deviations as determined by linear regression. Values for the inhibition constant, Kis was obtained using the relationship: […] where S(+) and S(-) are the slopes of the plots in the presence and absence of inhibitor, respectively, and [I] is the concentration of total added inhibitor. Where a noncompetitive pattern of inhibition was observed, a similar analysis was used to obtain Kii. Km for conenzyme was obtained from the slope and intercept obtained in plots in the absence of inhibitor, using the relationship: Km =[…]. Values of effective inhibition constants and patterns of inhibition for CNAD binding to ADH were obtained by direct least-squares fits to the nonreciprocal forms of the Michaelis-Menten rate equations. Kinetic data were fit to the following relationships, assuming both competitive and noncompetitive inhibition respectively: vo =[…]]} vo =[…] vo is the initial reaction rate, Vm is the maximal rate, and Km and [A] the Michaelis constant and concentration of the variable substrate, respectively. The pattern of inhibition considered to best account for the observed data was that giving both the smallest residuals between observed and calculated values, and the smallest standard errors in the computed kinetics constants. […] Derivation of this rate equation assumes the presence of a tight binding inhibitor, i.e., that [I]~[E]. In this experiment both inhibitor and enzyme concentration were varied. Initial rates vo were measured at total concentrations of CNAD ([I]) of 0, 2.4, 9.6, and 19.2 nM over four concentrations of ADH ([E]). Concentrations of ethanol and NAD were fixed at 1.2 […] and 87 μM at pH 8.0. The apparent inhibition constant with respect to NAD, Ki', was then obtained by non-linear least-squares fit to the rate equation under the array of experimental conditions employed. The true rate constant Ki was obtained from the apparent rate constant Ki was obtained from the apparent rate constant Ki, via the relationship: […]

Human IMPDH type II = target: T2, Human IMPDH type II (Homo sapiens, UniProt P12268); assay: Inhibition of human IMPDH type II by TAD analogues; type: biochemical
T2 construct: Dr. George D. Markham, Institute for Cancer Research, Fox Chase Cancer Center, Fox Chase, Pa
Description: Purified human recombinant IMPDH-II was obtained from Dr. George D. Markham of the Institute for Cancer Research, Fox Chase Cancer Center, Fox Chase, Pa. Horse liver ADH was obtained in crystalline form from Boehringer Mannheim Biochemicals, Indianapolis. β-Nicotinamide adenine dinucleotide (NAD) in crystalline free acid form was also obtained from Boehringer. Inosine 5'-monophosphate (IMP) was purchased from Sigma Chemical Co., St. Louis as the disodium salt. All solutions were prepared using nano-pure water.
Kinetic constants of the inhibitors with respect to NAD were obtained by monitoring spectrophotometrically the rate of production of NADH during the reaction.
Human IMPDH type II was stored at -70° C. in buffer containing 20 mM KCl, 1 mM EDTA, 1 mM DTT and 20 mM Tris-HCl adjusted to pH 8 at 23° C. In preparation for the assays, a frozen aliquot was thawed rapidly and filtered through a 0.45 μm acetate filter. Protein concentration was determined from a Coomassie Assay. In some cases the enzyme was diluted 4:1 in similar 20 mM Tris buffer. NAD and IMP solutions were prepared based on molecular weight.
Combination of the reactants was performed as follows: An aliquot of substrate solution was pipetted down one side of a cuvet, one of co-factor down another side, and inhibitor down a third. The volume was brought to 990 μL with reaction buffer and the cuvet was agitated. This mixture was allowed to incubate in the spectrophotometer sample holder for five minutes before the reaction was started, the temperature held at 37° C. by a circulating water bath. The reaction was initiated by the introduction of 10 μL of enzyme solution on a mixing plunger, and NADH production was monitored for between two and 10 minutes, depending on the activity of the protein solution.
The uninhibited rate of reaction as a function of cofactor concentration was first established. Velocities at four NAD concentrations and saturating substrate concentrations were measured and Km for NAD obtained. Inhibitor was then introduced to the reaction mixture with an NAD concentration in the vicinity of Km.
Lineweaver-Burk plots were used to assess the quality of the data and to initially characterize the mode of inhibition with respect to NAD. […] Consequently, values of kii (intercept) and kis (slope) reported in Table I were obtained from direct least squares fits to the expression:
where vo is the measured initial rate, Vm is the maximum rate, Km is the Michaelis constant of NAD, and [A] is concentration of NAD.

[2] = target: T3, horse liver alcohol dehydrogenase (LADH) (Equus caballus, UniProt P00327); assay: Preliminary assays of horse liver alcohol dehydrogenase (LADH) inhibition; type: biochemical; settings: ethanol 1.2 mM, pH 8, read-out: level of inhibition of horse liver alcohol dehydrogenase (LADH)
T3 construct: Horse liver ADH was obtained in crystalline form; purchased Boehringer Mannheim Biochemicals, Indianapolis; host or cells: horse liver
T3 sequence (P00327 whole entry): as above
Description: Purified human recombinant IMPDH-II was obtained from Dr. George D. Markham of the Institute for Cancer Research, Fox Chase Cancer Center, Fox Chase, Pa. Horse liver ADH was obtained in crystalline form from Boehringer Mannheim Biochemicals, Indianapolis. β-Nicotinamide adenine dinucleotide (NAD) in crystalline free acid form was also obtained from Boehringer. Inosine 5'-monophosphate (IMP) was purchased from Sigma Chemical Co., St. Louis as the disodium salt. All solutions were prepared using nano-pure water. Kinetic constants of the inhibitors with respect to NAD were obtained by monitoring spectrophotometrically the rate of production of NADH during the reaction. The course of the reaction was followed by measuring the changing absorbance of the reaction mixture at 340 nm, the absorbance peak for NADH, using a Beckman DU-65 spectrophotometer, and an extinction of 6.22 A mM^-1 cm^-1 for the reduced cofactor.(51) Preliminary assays of alcohol dehydrogenase were performed in a similar manner to that described above. LADH in crystalline suspension was spun down to a pellet and dissolved in 100 mM Tris-HCl buffer containing 100 mM KCl adjusted to pH 8 at 23° C. Stock solutions of NAD and ethanol were prepared in buffer based on molecular weight and volume, respectively. Ethanol was introduced as an aliquot of stock solution and its concentration was kept constant at 1.2 mM while NAD concentration was varied by serial dilution of the stock solution.

cell membranes = settings: compared with tiazofurin; personal communication (ref. 35); cited from earlier work
[3] = tested on: malate dehydrogenase (MDH); assay: Inhibition of malate dehydrogenase by the NAD analog; type: biochemical
[4] = target: bovine glutamate dehydrogenase (GDH) (Bos taurus, UniProt P00366); assay: Inhibition of bovine glutamate dehydrogenase (GDH); type: biochemical
Sequence of bovine glutamate dehydrogenase (GDH) (P00366 58-558): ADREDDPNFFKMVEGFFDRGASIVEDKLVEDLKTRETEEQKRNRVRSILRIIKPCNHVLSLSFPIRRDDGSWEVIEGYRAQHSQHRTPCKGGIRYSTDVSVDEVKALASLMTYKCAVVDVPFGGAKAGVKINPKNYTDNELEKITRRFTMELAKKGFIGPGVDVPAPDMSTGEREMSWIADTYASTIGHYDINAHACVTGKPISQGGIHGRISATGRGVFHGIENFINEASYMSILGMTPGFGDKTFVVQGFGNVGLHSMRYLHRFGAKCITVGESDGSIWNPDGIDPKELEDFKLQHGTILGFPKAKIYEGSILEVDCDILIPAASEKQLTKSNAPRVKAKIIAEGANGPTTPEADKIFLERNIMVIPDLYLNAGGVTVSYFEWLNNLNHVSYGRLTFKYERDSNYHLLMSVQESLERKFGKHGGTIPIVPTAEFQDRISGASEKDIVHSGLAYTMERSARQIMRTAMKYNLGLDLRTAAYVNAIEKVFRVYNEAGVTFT
Description: 2. Inhibition of horse liver alcohol dehydrogenase (ADH) and bovine glutamate dehydrogenase (GDH)
Rate measurements for each of the dehydrogenases used in this study are based on the spectral properties of NADH. In assays with NAD as a substrate, rates were determined by measuring the increase in absorbance at 340 nm resulting from the conversion of NAD to NADH. Rates, using absorbance measurements, were calculated using a millimolar extinction coefficient of 6.22/cm for NADH.
Alcohol dehydrogenase assays were run at pH 8.0, using 0.1M sodium phosphate buffer. Glutamate dehydrogenase assays were at pH 7.0 in 0.1M sodium phosphate buffer, containing 10 μm EDTA. All kinetic assays were run at least in duplicate.
Initial values of inhibition constants were estimated from Lineweaver-Burk plots, using linear regression to obtain values for the slope and intercept of each line. Inhibition was judged to be competitive if the values obtained for the intercepts of the appropriate polots differed by less than three standard deviations as determined by linear regression. Values for the inhibition constant, Kis was obtained using the relationship:
where S(+) and S(-) are the slopes of the plots in the presence and absence of inhibitor, respectively, and [I] is the concentration of total added inhibitor. […]

[5] = tested on: murine leukemia L1210 cells; assay: Cytotoxicity to murine leukemia L1210 cells; type: cell-based; settings: Mus musculus, incubated 24 and 48 hr, cells counted in a Coulter counter, read-out: inhibits the proliferation of L1210 cells by 50% (IC50)
Description: 1. Cytoxicity of 5-(β-D-ribofuranosyl)nicotinamide-(5'-5")-adenosine pyrophosphate (Compound 2, CNAD) to murine leukemia L1210 cells.
Murine leukemia L1210 cells were grown in RPMI 1640 medium. Logarithmically growing cells were incubated with various concentrations of CNAD for 24 and 48 hr periods and the cytoxicity determined by counting the cells in a Coulter counter.

[6] = tested on: inosine monophosphate dehydrogenase (IMPDH); assay: Inhibition of inosine monophosphate dehydrogenase by the NAD analog; type: biochemical
[7] = tested on: lactate dehydrogenase (LDH); assay: Inhibition of lactate dehydrogenase by the NAD analog; type: biochemical
[8] = IMPDH type II, read-out: Kis (binding)
[9] = NAD variable substrate, IMP constant at 100 μM, non-competitive, 37° C., read-out: Kii
[10] = NAD variable substrate, IMP constant at 100 μM, non-competitive, 37° C., read-out: Kis

| Structure (SMILES) | Ki (Human IMPDH type II; [8]) [µM] | Ki (Human IMPDH type II; [9]) [µM] | Ki (Human IMPDH type II; [10]) [µM] | Ki [2] [µM] | pattern of inhibition of ADH with respect to NAD [1] | also measured |
| --- | --- | --- | --- | --- | --- | --- |
| NC(=O)c1cccc([C@@H]2O[C@H](COP(=O)(O)OP(=O)(O)OC[C@H]3O[C@@H](n4cnc5c(N)ncnc54)[C@H](O)[C@@H]3O)[C@@H](O)[C@H]2O)n1 [C-PAD, 6-(β-D-ribofuranosyl)picolinamide-(5'-5")adenosine pyrophosphate] |  |  |  |  | competitive | Ki ([1]; competitive, read-out: Ki, inhibition of ADH with respect to NAD): 20 µM |
| NC(=O)c1csc([C@@H]2O[C@H](COP(=O)(O)C(F)(F)P(=O)(O)OC[C@H]3O[C@@H](n4cnc5c(N)ncnc54)[C@H](O)[C@@H]3O)[C@@H](O)[C@H]2O)n1 [β-CF2 -TAD, β-difluoromethylene TAD] |  | 0.17 ± 0.03 | 0.3 ± 0.2 |  |  | Ki (Human IMPDH type II; IMPDH type II, read-out: Ki): 0.17 µM; penetration of cell membranes (cell membranes): can penetrate cell membranes although not as efficiently as tiazofurin |
| NC(=O)c1cncc([C@@H]2O[C@H](COP(=O)(O)OP(=O)(O)OC[C@H]3O[C@@H](n4cnc5c(N)ncnc54)[C@H](O)[C@@H]3O)[C@@H](O)[C@H]2O)c1 [CNAD, 5-(β-D-ribofuranosyl)nicotinamide-(5'-5")-adenosine pyrophosphate] |  |  |  |  | non-competitive | pattern of inhibition of MDH with respect to NAD [3]: competitive; inhibitory activity against alcohol dehydrogenase from horse liver (in words) [1]: highly potent and selective inhibitory activity; Ki ([1]; direct least-squares fit to Michaelis-Menten rate equations, read-out: apparent Ki (Ki') with respect to NAD): 0.006 µM; Ki ([1]; non-competitive, with respect to NAD, read-out: Ki, inhibition of ADH): 0.002 µM; pattern of inhibition of GDH with respect to NAD [4]: competitive; Ki ([4]; competitive, pH 7.0): 15 µM; IC50 [5]: 7 µM; pattern of inhibition of IMPDH with respect to NAD [6]: competitive; pattern of inhibition of LDH with respect to NAD [7]: competitive |

More lines, main results first:

| Ki (Human IMPDH type II; [8]) [µM] | Ki (Human IMPDH type II; [9]) [µM] | Ki (Human IMPDH type II; [10]) [µM] | Ki [2] [µM] | Structure (SMILES) | pattern of inhibition of ADH with respect to NAD [1] | also measured |
| --- | --- | --- | --- | --- | --- | --- |
| 0.7 | 0.7 ± 0.1 | 1.5 ± 0.6 | 100 | NC(=O)c1csc([C@@H]2O[C@H](COP(=O)(O)OP(=O)(O)OC[C@H]3O[C@@H](n4cnc5c(N)ncnc54)[C@H](O)[C@@H]3F)[C@@H](O)[C@H]2O)n1 [Compound 4, P^1-(Tiazofurin-5'-yl)-P^2-(3'-deoxy-3'-fluoroadenosin-5'-yl)pyrophosphate] |  |  |
| 0.5 | 0.5 ± 0.1 | 6 ± 12 | 100 | NC(=O)c1csc([C@@H]2O[C@H](COP(=O)(O)OP(=O)(O)OC[C@H]3O[C@@H](n4cnc5c(N)ncnc54)[C@H](F)[C@@H]3O)[C@@H](O)[C@H]2O)n1 [Compound 3, P^1-(Tiazofurin-5'-yl)-P^2-(2'-deoxy-2'-fluoroadenosin 5'-yl)pyrophosphate] |  |  |
| 2.9 | 2.9 ± 0.5 | 13 | > 10000 | NC(=O)c1csc([C@@H]2O[C@H](COP(=O)(O)OP(=O)(O)OC[C@H]3O[C@@H](n4cnc5c(N)ncnc54)[C@@H](F)[C@@H]3O)[C@@H](O)[C@H]2O)n1 [Compound 5] |  |  |
